For data set [1], the system named is HCV-Luc (HCV JFH-1 strain, genotype 2a). In words: microbe, parasite or virus in culture. The class given is cell-based. As to conditions: Hepatitis C virus, GETYPE2A, values in nM.
Data set [2] addresses H1-histamine receptor (H1HR) (Homo sapiens, UniProt P35367). In words: H1HR inhibition assay. The class given is cell-based. The following applies: read-out: H1HR inhibition.
The conditions of data set [3]: mouse, i.p., 24 h, previously reported, cited from earlier work.
The test system of data set [4] is hepatitis B virus, HCV replicon, herpes simplex virus-1, human cytomegalovirus, vaccinia virus, dengue virus, influenza A (H1N1) virus, respiratory syncytial …. The class given is cell-based.
Data set [5] in a line: Alanine transaminase.

Consider five compounds from article PMC4753534 (Journal of Medicinal Chemistry, 2015).

Where two headings read alike, the source gives them in different places.

H1-histamine receptor (H1HR), sequence (P35367 whole entry): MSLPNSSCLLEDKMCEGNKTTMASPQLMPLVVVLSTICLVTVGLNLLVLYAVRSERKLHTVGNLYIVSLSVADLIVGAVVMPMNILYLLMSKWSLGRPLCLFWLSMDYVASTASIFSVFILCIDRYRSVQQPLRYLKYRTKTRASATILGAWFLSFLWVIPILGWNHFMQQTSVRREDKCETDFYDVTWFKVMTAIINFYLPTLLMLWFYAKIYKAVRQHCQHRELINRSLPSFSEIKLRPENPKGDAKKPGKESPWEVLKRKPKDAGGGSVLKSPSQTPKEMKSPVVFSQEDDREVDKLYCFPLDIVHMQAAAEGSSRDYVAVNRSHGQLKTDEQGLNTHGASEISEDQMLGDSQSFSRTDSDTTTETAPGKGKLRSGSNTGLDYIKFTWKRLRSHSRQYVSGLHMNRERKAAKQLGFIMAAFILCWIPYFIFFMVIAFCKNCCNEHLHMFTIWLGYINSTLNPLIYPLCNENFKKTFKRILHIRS

As for `NCCOCCN1CCN(C(c2ccccc2)c2ccc(Cl)cc2)CC1` (racemic) [Rac-23, 2-(2-(4-((4-Chlorophenyl) (Phenyl)methyl)piperazin-1-yl)ethoxy)ethanamine], the EC50 (as a rule, the concentration that produces a half-maximal response) in data set [1] was under 8 nM.
Take `Clc1ccc([C@H](c2ccccc2)N2CCNCC2)cc1` [(S)-1]: the inhibition (commonly the share of the control response that was lost under treatment) at 0.01 µM in data set [2] was about 10%. Further, the “T1/2 Liver” value in data set [3] (10 mg/kg) is given as 4.7 h.
Take `CN1CCN([C@@H](c2ccccc2)c2ccc(Cl)cc2)CC1` [(S)-2, reference compound]: the “T1/2 Liver” value in data set [3] (50 mg/kg) is on record as 1.99 h.
In the case of `CCN1CCN([C@@H](c2ccccc2)c2ccc(Cl)cc2)CC1` [(S)-10, (S)-1-((4-Chlorophenyl) (phenyl)methyl)-4-ethylpiperazine], in data set [4], the “antiviral activity in the NIAID antiviral screen” value was “Little or no antiviral activity was detected”.
In data set [5] (mouse serum, 10 mg/kg i.p., most time points except t = 2 and 4 h), `CN1CCN(C(c2ccc(Cl)cc2)c2ccc(Cl)cc2)CC1` [Compound 30, 1-(Bis(4-chlorophenyl)methyl)-4-methylpiperazine] gave an ALT levels of at most 80 U/L. The hepatotoxicity entry in data set [5] (mouse, single 10 mg/kg i.p., ALT also elevated with vehicle only) is given as “no clear hepatotoxicity was detected”.
